Experimental data as given in patent US20030083202A1, “Roots-inducing agent of plants and its treatment method” (priority 2001, published 2003).

Legend:
[1] = system: cut stems of chrysanthemums; experiment: Roots-inducing and fixation-stimulating actions in cut stems of chrysanthemums (leaf spray); type: in vivo; design: Index for roots-induction, Total indexes: scale not given here; settings: 50th day; for Index for roots-induction, cutting 1 / Index for roots-induction, cutting 2 / Index for roots-induction, cutting 3 / Index for roots-induction, cutting 4 / Index for roots-induction, cutting 5 / Index for roots-induction, cutting 6 / Index for roots-induction, cutting 7 / Index for roots-induction, cutting 8: 5 ppm water solution sprayed once onto leaves, 8 cuttings; for Index for roots-induction, Total indexes: sum of the indexes of 8 cuttings, 5 ppm spray, non-treatment 7
From the text: Stems of chrysanthemums were cut out by 5 cm from the part at 5-10 cm from the top to prepare cuttings with 2 leaves. The water solution of the tested compound (5 ppm) was sprayed once in a misty manner through an mascot spray onto the surface of leaves so that the surface got wet uniformly for each 8 cuttings. The cuttings in the pots were grew in a cabinet where the temperature was controlled in the range of 15 (C at lowest at night to 30 (C at highest in the daytime. Water was supplied appropriately according to the extent of dryness of soil during the cultivation of plants.
On the 50th day after the tested compound was sprayed, roots-induction of each cutting was checked by diggings up, and its extent was shown as an index for each rank.

[2] = system: cuttings of violets without roots; experiment: Roots-inducing and fixation-stimulating actions in cuttings of violets (leaf spray); type: in vivo
Description: Seedlings of violets were used in the experiment. The lower part of the seedlings of violets was cut and cuttings of violets without roots were prepared. Each cutting of violets was planted into cultivation soil in a plug tray and supplied water sufficiently.
The plug trays were lined up on the working stand in a green house where the temperature was controlled at 25-33 (C. The water solution of 4-chloroindole-3-acetic acid (20 ppm) was sprayed in a misty manner through an atomizer onto the surface of leaves so that the surface got wet uniformly (once).
Then, the plants were grew for 38 days with 1-2 times water supply every other day, and numbers of the cuttings with and without roots-induction and of the dead cuttings. In the control, the cuttings were sprayed only water instead of 4-chloroindole-3-acetic acid solution and grew under the same conditions as those described above.

[3] = 20 ppm water solution sprayed once onto leaves, after 38 days, of 93 cuttings

| SMILES | Index for roots-induction, cutting 1 [1] | Index for roots-induction, cutting 2 [1] | Index for roots-induction, cutting 3 [1] | Index for roots-induction, cutting 4 [1] | Index for roots-induction, cutting 5 [1] | Index for roots-induction, cutting 6 [1] | Index for roots-induction, cutting 7 [1] | Index for roots-induction, cutting 8 [1] | Index for roots-induction, Total indexes [1] | Roots-inducing and fixation-stimulating actions (in words) ([2]; 20 ppm spray, versus water control) | Time at which roots-induction was observed ([2]; 20 ppm spray, roots checked by digging up at random, no statistical analysis, control only after 7 days) | Cuttings with roots-induction (number of cuttings) [2, 3] | Cuttings without roots-induction (%) [2, 3] | Cuttings without roots-induction (number of cuttings) [2, 3] | Dead cuttings (%) [2, 3] | Dead cuttings (number of cuttings) [2, 3] | Cuttings with roots-induction (%) ([2]; 20 ppm water solution sprayed once onto leaves, after 38 days, of 93 cuttings, listed as 4-Cl-iAA) | Cuttings with roots-induction (%) ([2]; 20 ppm water solution sprayed once onto leaves, after 38 days, of 93 cuttings, listed as 4-chloroindole-3-acetic acid) |
| --- | --- | --- | --- | --- | --- | --- | --- | --- | --- | --- | --- | --- | --- | --- | --- | --- | --- | --- |
| CCC(C)OC(=O)Cc1c[nH]c2cccc(Cl)c12 (racemic) [4-Cl-IAA 2-Bu] | 2 (The cuttings with 10-19 roots per a cutting) | 2 (The cuttings with 10-19 roots per a cutting) | 2 (The cuttings with 10-19 roots per a cutting) | 2 (The cuttings with 10-19 roots per a cutting) | 1 (The cuttings with 5-9 roots per a cutting) | 1 (The cuttings with 5-9 roots per a cutting) | 0 (The cuttings with less than 4 roots (including no roots)) | 0 (The cuttings with less than 4 roots (including no roots)) | 10 |  |  |  |  |  |  |  |  |  |
| CCCCOC(=O)Cc1c[nH]c2cccc(Cl)c12 [4-Cl-IAA 1-Bu] | 2 (The cuttings with 10-19 roots per a cutting) | 2 (The cuttings with 10-19 roots per a cutting) | 2 (The cuttings with 10-19 roots per a cutting) | 2 (The cuttings with 10-19 roots per a cutting) | 1 (The cuttings with 5-9 roots per a cutting) | 1 (The cuttings with 5-9 roots per a cutting) | 0 (The cuttings with less than 4 roots (including no roots)) | 0 (The cuttings with less than 4 roots (including no roots)) | 10 |  |  |  |  |  |  |  |  |  |
| CC(C)OC(=O)Cc1c[nH]c2cccc(Cl)c12 [4-Cl-IAA 2-Pr] | 2 (The cuttings with 10-19 roots per a cutting) | 2 (The cuttings with 10-19 roots per a cutting) | 2 (The cuttings with 10-19 roots per a cutting) | 2 (The cuttings with 10-19 roots per a cutting) | 2 (The cuttings with 10-19 roots per a cutting) | 1 (The cuttings with 5-9 roots per a cutting) | 0 (The cuttings with less than 4 roots (including no roots)) | 0 (The cuttings with less than 4 roots (including no roots)) | 11 |  |  |  |  |  |  |  |  |  |
| C=CCOC(=O)Cc1c[nH]c2cccc(Cl)c12 [4-Cl-IAA Ally] | 3 (The cuttings with 20 or more roots per a cutting) | 3 (The cuttings with 20 or more roots per a cutting) | 2 (The cuttings with 10-19 roots per a cutting) | 2 (The cuttings with 10-19 roots per a cutting) | 2 (The cuttings with 10-19 roots per a cutting) | 1 (The cuttings with 5-9 roots per a cutting) | 1 (The cuttings with 5-9 roots per a cutting) | 0 (The cuttings with less than 4 roots (including no roots)) | 14 |  |  |  |  |  |  |  |  |  |
| CCOC(=O)Cc1c[nH]c2cccc(Cl)c12 [4-Cl-IAA Et] | 3 (The cuttings with 20 or more roots per a cutting) | 3 (The cuttings with 20 or more roots per a cutting) | 3 (The cuttings with 20 or more roots per a cutting) | 3 (The cuttings with 20 or more roots per a cutting) | 3 (The cuttings with 20 or more roots per a cutting) | 2 (The cuttings with 10-19 roots per a cutting) | 1 (The cuttings with 5-9 roots per a cutting) | 0 (The cuttings with less than 4 roots (including no roots)) | 18 |  |  |  |  |  |  |  |  |  |
| CCCOC(=O)Cc1c[nH]c2cccc(Cl)c12 [4-Cl-IAA I-Pr] | 3 (The cuttings with 20 or more roots per a cutting) | 3 (The cuttings with 20 or more roots per a cutting) | 2 (The cuttings with 10-19 roots per a cutting) | 2 (The cuttings with 10-19 roots per a cutting) | 2 (The cuttings with 10-19 roots per a cutting) | 2 (The cuttings with 10-19 roots per a cutting) | 1 (The cuttings with 5-9 roots per a cutting) | 1 (The cuttings with 5-9 roots per a cutting) | 16 |  |  |  |  |  |  |  |  |  |
| COC(=O)Cc1c[nH]c2cccc(Cl)c12 [4-Cl-IAA Me] | 3 (The cuttings with 20 or more roots per a cutting) | 3 (The cuttings with 20 or more roots per a cutting) | 3 (The cuttings with 20 or more roots per a cutting) | 2 (The cuttings with 10-19 roots per a cutting) | 2 (The cuttings with 10-19 roots per a cutting) | 2 (The cuttings with 10-19 roots per a cutting) | 0 (The cuttings with less than 4 roots (including no roots)) | 0 (The cuttings with less than 4 roots (including no roots)) | 15 |  |  |  |  |  |  |  |  |  |
| CC(C)COC(=O)Cc1c[nH]c2cccc(Cl)c12 [4-Cl-IAA isoBu] | 2 (The cuttings with 10-19 roots per a cutting) | 2 (The cuttings with 10-19 roots per a cutting) | 2 (The cuttings with 10-19 roots per a cutting) | 1 (The cuttings with 5-9 roots per a cutting) | 1 (The cuttings with 5-9 roots per a cutting) | 0 (The cuttings with less than 4 roots (including no roots)) | 0 (The cuttings with less than 4 roots (including no roots)) | 0 (The cuttings with less than 4 roots (including no roots)) | 8 |  |  |  |  |  |  |  |  |  |
| CCCCCOC(=O)Cc1c[nH]c2cccc(Cl)c12 [4-Cl-IAA pentyl] | 2 (The cuttings with 10-19 roots per a cutting) | 2 (The cuttings with 10-19 roots per a cutting) | 2 (The cuttings with 10-19 roots per a cutting) | 2 (The cuttings with 10-19 roots per a cutting) | 1 (The cuttings with 5-9 roots per a cutting) | 1 (The cuttings with 5-9 roots per a cutting) | 0 (The cuttings with less than 4 roots (including no roots)) | 0 (The cuttings with less than 4 roots (including no roots)) | 10 |  |  |  |  |  |  |  |  |  |
| O=C(O)Cc1c[nH]c2cccc(Cl)c12 [4-Cl-IAA, 4-chloroindole-3-acetic acid] | 3 (The cuttings with 20 or more roots per a cutting) | 2 (The cuttings with 10-19 roots per a cutting) | 2 (The cuttings with 10-19 roots per a cutting) | 2 (The cuttings with 10-19 roots per a cutting) | 2 (The cuttings with 10-19 roots per a cutting) | 2 (The cuttings with 10-19 roots per a cutting) | 0 (The cuttings with less than 4 roots (including no roots)) | 0 (The cuttings with less than 4 roots (including no roots)) | 13 | extremely prominent | around 3 days | 74 | (6) % | 6 | (14) % | 13 | (80) % | 80 |
